Test results as given in patent US12077503B2, “Substituted cyclic amides and their use as herbicides” (FMC CORPORATION, priority 2015, dated 2024).

Experiments:
Type in all cases: in vivo
[1] = tested on: corn (Zea mays); assay: Test A postemergence; settings: Zea mays, post-emergence, 240 h, postemergence, read-out: Corn plant response rating
Summary of the method: (§1)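 Greenhouse, ~10 d after spray; visual injury vs untreated controls, 0 = no effect, 100 = complete control. Preemergence: directed soil spray over planted seeds. Postemergence: plants 2–10 cm, 1–2 leaf stage. Loam/sand blend. Compound in non-phytotoxic solvent with surfactant.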

[2] = tested on: ryegrass, Italian (Italian ryegrass, Lolium multiflorum); assay: Test A postemergence; settings: Lolium multiflorum, post-emergence, 240 h, postemergence, read-out: Ryegrass, Italian plant response rating
Summary of the method: as §1

[3] = tested on: Galium (catchweed bedstraw, Galium aparine); assay: Test A postemergence; settings: Galium, post-emergence, 240 h, postemergence, read-out: Galium plant response rating
Summary of the method: as §1

[4] = tested on: pigweed (Amaranthus retroflexus); assay: Test A postemergence; settings: Amaranthus retroflexus, post-emergence, 240 h, postemergence, read-out: Pigweed plant response rating
Summary of the method: as §1

[5] = tested on: wheat (Triticum aestivum); assay: Test A postemergence; settings: Triticum aestivum, post-emergence, 240 h, postemergence, read-out: Wheat plant response rating
Summary of the method: as §1

[6] = tested on: giant foxtail (Setaria faberii); assay: Test A postemergence; settings: Setaria faberi, post-emergence, 240 h, postemergence, read-out: Foxtail, Giant plant response rating
Summary of the method: as §1

[7] = tested on: ragweed (common ragweed, Ambrosia elatior); assay: Test A postemergence; settings: Ambrosia artemisiifolia, post-emergence, 240 h, postemergence, read-out: Ragweed plant response rating
Summary of the method: as §1

[8] = tested on: barnyardgrass (Echinochloa crus-galli); assay: Test A postemergence; settings: Echinochloa crus-galli, post-emergence, 240 h, postemergence, read-out: Barnyardgrass plant response rating
Summary of the method: as §1

[9] = tested on: Kochia (Kochia scoparia); assay: Test A postemergence; settings: Bassia scoparia, post-emergence, 240 h, postemergence, read-out: Kochia plant response rating
Summary of the method: as §1

[10] = tested on: ryegrass, Italian (Italian ryegrass, Lolium multiflorum); assay: Test A preemergence; settings: Lolium multiflorum, pre-emergence, 240 h, preemergence, 0 to 100 scale where 0 is no effect and 100 is complete control, read-out: Ryegrass, Italian plant response rating
Summary of the method: as §1

[11] = tested on: pigweed (Amaranthus retroflexus); assay: Test A preemergence; settings: Amaranthus retroflexus, pre-emergence, 240 h, preemergence, 0 to 100 scale where 0 is no effect and 100 is complete control, read-out: Pigweed plant response rating
[12] = tested on: giant foxtail (Setaria faberii); assay: Test A preemergence; settings: Setaria faberi, pre-emergence, 240 h, preemergence, 0 to 100 scale where 0 is no effect and 100 is complete control, read-out: Foxtail, Giant plant response rating
Summary of the method: as §1

[13] = tested on: ragweed (common ragweed, Ambrosia elatior); assay: Test A preemergence; settings: Ambrosia artemisiifolia, pre-emergence, 240 h, preemergence, 0 to 100 scale where 0 is no effect and 100 is complete control, read-out: Ragweed plant response rating
Summary of the method: as §1

[14] = tested on: barnyardgrass (Echinochloa crus-galli); assay: Test A preemergence; settings: Echinochloa crus-galli, pre-emergence, 240 h, preemergence, read-out: Barnyardgrass plant response rating
Summary of the method: as §1

[15] = tested on: Kochia (Kochia scoparia); assay: Test A preemergence; settings: Bassia scoparia, pre-emergence, 240 h, preemergence, 0 to 100 scale where 0 is no effect and 100 is complete control, read-out: Kochia plant response rating
Summary of the method: as §1

[16] = 125 g ai/ha, visual injury on 0 to 100 scale (0 no effect, 100 complete control), approx. 10 d
[17] = 500 g ai/ha, 0 to 100 scale, 0 is no effect, 100 is complete control

In the case of O=C1NC[C@H](c2cscn2)[C@H]1C(=O)Nc1cccc(F)c1F [Compound 1111], the plant injury at 125 g/ha [1, 16] is reported as 0%, the plant injury at 500 g/ha [1, 17] is reported as 0% and the pest or weed control at 125 g/ha [2, 16] is reported as 0%. It also gave a pest or weed control at 500 g/ha [2, 17] of 0%, a pest or weed control at 125 g/ha [3, 16] of 0% and a pest or weed control at 500 g/ha [3, 17] of 0%. For the same compound, the pest or weed control at 125 g/ha [4, 16] was 0%, the pest or weed control at 500 g/ha [4, 17] was 0% and the plant injury at 125 g/ha [5, 16] was 0%. It also gave a plant injury at 500 g/ha [5, 17] of 0%, a pest or weed control at 125 g/ha [6, 16] of 20% and a pest or weed control at 500 g/ha [6, 17] of 50%. The pest or weed control at 125 g/ha [7, 16] was 0%, the pest or weed control at 500 g/ha [7, 17] was 0% and the pest or weed control at 125 g/ha [8, 16] was 0%. The pest or weed control at 500 g/ha [8, 17] was 0%, the pest or weed control at 125 g/ha [9, 16] was 0% and the pest or weed control at 500 g/ha [9, 17] was 0%. The pest or weed control at 125 g/ha ([10]; 125 g ai/ha, approx. 10 d) was 0%, the pest or weed control at 500 g/ha ([10]; 500 g ai/ha) was 20% and the pest or weed control at 125 g/ha ([11]; 125 g ai/ha, approx. 10 d) was 0%. It also gave a pest or weed control at 500 g/ha ([11]; 500 g ai/ha) of 0%, a pest or weed control at 125 g/ha ([12]; 125 g ai/ha, approx. 10 d) of 0% and a pest or weed control at 500 g/ha ([12]; 500 g ai/ha) of 0%. The pest or weed control at 125 g/ha ([13]; 125 g ai/ha, approx. 10 d) was 0%, the pest or weed control at 500 g/ha ([13]; 500 g ai/ha) was 0% and the pest or weed control at 125 g/ha ([14]; 125 g ai/ha, 0 to 100 scale where 0 is no effect and 100 is complete control, approx. 10 d) was 0%. The pest or weed control at 500 g/ha ([14]; 500 g ai/ha, visual injury rating about 10 d after treatment, 0 to 100 scale (0 no effect, 100 complete control)) was 0%, the pest or weed control at 125 g/ha ([15]; 125 g ai/ha, approx. 10 d) was 0% and the pest or weed control at 500 g/ha ([15]; 500 g ai/ha) was 0%.
